Source: US8193364B2, “Insecticidal N-substituted (6-haloalkylpyridin-3-yl)-alkyl sulfoximines” (Dow AgroSciences, LLC., priority 2006, dated 2012)

How the values were obtained:
Type in all cases: in vivo
[1] = system: Brown Dog Tick (Rhipicephalus sanguineus); test: Brown dog tick glass plate assay; settings: 48-hour observation
Method: Compound 2 was evaluated in a dose response series to establish the range of activity of the test compound. Technical material was dissolved in acetone and diluted with the same solvent to obtain the test concentrations. Tick bioassays were conducted by applying 1.0 ml of the test substance to clean dry glass plates confined by 10 cm grease pencil circles drawn on the plates and spread evenly with an acid brush. The plates were allowed to dry for at least 1 hour before adult ticks were confined to the treated substrate using 10 cm Petri dish lids. Each treatment was replicated 5 times. Approximately 5 adult ticks were placed into each replicate. Mortality was assessed at 2, 8, 24 and 48 hours after introduction of the ticks into the test system. The mean percent mortality for each dosage group and time interval was determined and results from the 48-hour observation are presented in Table 10.

[2] = system: Cotton Aphid (Aphis gossypii); test: Cotton aphid foliar spray assay on squash; settings: 72 h, read-out: % Control of cotton aphid on squash (foliar spray)
Method: Squash with fully expanded cotyledon leaves were trimmed to one cotyledon per plant and infested with cotton aphid (wingless adult and nymph) 1 day prior to chemical application. Each plant was examined before chemical application to ensure proper infestation (ca. 30-70 aphids per plant). Compounds (2 mg) were dissolved in 2 ml of acetone:methanol (1:1) solvent, forming stock solutions of 1000 ppm. The stock solutions were then diluted with a diluent consisting 80 parts of 0.025% Tween 20 in H2O and 20 parts of acetone:methanol (1:1). A hand-held Devilbiss sprayer was used to apply the test solutions until runoff to both sides of the squash cotyledon leaves. Four plants (4 replications) were used for each concentration of each compound. Reference plants (solvent check) were sprayed with the diluent only. Treated plants were held in a holding room for 3 days at approximately 23° C. and 40% RH before the number of live aphids on each plant was recorded. Insecticidal activity was measured by Corrected % Control using Abbott's correction formula and presented in Table 1: Corrected % Control=100*(X−Y)/X • where X=No. of live aphids on solvent check plants • Y=No. of live aphids on treated plants

[3] = system: Brown Planthopper (Nilaparvata lugens); test: Brown planthopper foliar spray assay on rice
Method: A foliar spray assay and a root-uptake systemic assay were performed on both brown planthopper and green leafhopper. Four-week-old rice seedlings were submerged in 3-cm depth of water in the bottom portion (high 5 cm, diameter 3 cm) of a 2-part glass cylinder (high 18 cm, diameter 3 cm). A metal screen was used to hold the seedlings within the bottom portion. Scotch tape was used to bind the two portions of the cylinder after setting up the seedlings. A metal cap was used to cover the cylinder. There were 4 cylinders for each treatment. The test compound was dissolved in acetone to make a 10,000 ppm stock solution. For the foliar spray assay, this stock solution was diluted with water to make 10, 2.5, 0.31, 0.08 and 0.02 ppm test solutions. A volume of 0.5 ml of a test solution or solvent blank as check was sprayed into the glass cylinder. For systemic test, the stock solution was incorporated at final test concentrations of 10, 2.5, 0.31, 0.08 and 0.02 ppm in the water in which rice seedlings were submerged. In both foliar spray and systemic tests, five laboratory-reared 3rd instar nymphs of brown planthopper or green leafhopper were introduced into each cylinder 3 hr after insecticide application. The treated test units were kept in a growth chamber with conditions set as followings: Temperature 28±0.5° C.; Relative humidity 70±0.5%; Photoperiod […].

[4] = system: Green Peach Aphid (Myzus persicae); test: Green peach aphid root uptake assay on pepper; settings: 3 days after infestation
Method: Systemic activity of compound 2 against green peach aphid was evaluated in a root uptake assay. Bell peppers (Capsicum annum var. California Wonder) was used as test plant seeded and grown in rock wool plugs. Plants were grown to expanding 1st true leaf stage. The rock wool plugs containing individual plants were placed in 1-ounce cups and surrounded with white clean sand. Five plants were used for each treatment. Stock solution of 1000 ppm was made by dissolving 2 mg of technical test compound in 2 mL acetone. The highest test concentration (10 ppm, 0.05 mg/5 ml) was prepared by diluting 0.32 mL stock solution with 1.6 mL acetone and 30.08 mL DI water, containing 6% acetone. Lower test concentrations were prepared by sequentially diluting 6.5 mL higher concentration (start from the 10 ppm test solution) with 26.0 ml acetone:DI water (6:94). A volume of 5 mL was applied to each cup (each plant). Use 6% acetone in water as solvent check. After insecticide application, the seedlings were infested with green peach aphids and held in a growth chamber (25° C., 50 R.H, 16 hr light: 8 hr drak). Number of live aphid on each plant was counted at 3 days after infestation. Calculations for % control were based on a corrected basis compared to the populations on the solvent check plants. Corrected % Control=100*(X−Y)/X • where X=No. of live aphids on solvent check plants • Y=No. of live aphids on treated plants The Corrected % Control values from lower test rates are given in Table 6.

[5] = system: Sweet Potato Whitefly (Bemisia tabaci); test: Sweet potato whitefly foliar spray assay on cotton; settings: 12 days, live large nymphs
Description: This test was designed to measure the capability of whitefly eggs and/or young nymphs to develop to large nymphs. Cotton seedlings at the growth stage of one or two expanding true leaf were trimmed so that only the first true leaf remained (cotyledon leaves were also removed). The plants were pre-infested with sweet potato whitefly eggs by keeping plants next to the colony-keeping plants for two days. The infested plants were carefully checked for presence of similar egg density before use in the insecticidal tests. Master solutions of test compounds at 1000 ppm were prepared in acetone:methanol (1:1). The 12.5 ppm spray solutions were then made by diluting 0.188 mL of the master solution with 14.812 ml of 0.025% Tween 20 in water. The lower concentrations were made by diluting the 12.5 ppm spray solution with a diluent consisting 98.75 parts of 0.025% Tween 20 in water and 1.25 parts of acetone:methanol (1:1). The diluent was used as solvent control. The test solutions were sprayed with a hand-held Devilbiss sprayer until runoff to both sides of the infested cotton leaves. Four plants (4 replications) were used for each treatment. Treated plants were held in a holding room for 12 days at approximately 23° C. and 40% RH before evaluation. To evaluate the efficacy of the compounds, the number of live large nymphs in an area of 1 square inch on the lower surface of the treated cotton leaves was counted under a microscope. Insecticidal activity was determined by Corrected % Control using Abbott's correction formula and presented in Table 5: Corrected % Control=100*(X−Y)/X • where X=No. of live large nymphs on solvent check plants • Y=No. of live large nymphs on treated plants

CC(c1ccc(C(F)(F)F)nc1)S(C)(=O)=NC#N (stereo not drawn) [Compound 2, [1-(6-trifluoromethylpyridin-3-yl)ethyl](methyl)-oxido-λ^4-sulfanylidenecyanamide]
mortality at 50 ppm ([1]; 50 ppm): 28% | mortality at 500 ppm ([1]; 500 ppm): 61% | pest or weed control at 0.049 ppm [2]: 90 to 100% | pest or weed control at 0.195 ppm [2]: 90 to 100% | pest or weed control at 0.781 ppm [2]: 90 to 100% | pest or weed control at 3.13 ppm [2]: 90 to 100% | % Control at ppm against brown planthopper ([3]; 0.02 ppm): F (Less than 50) | % Control at ppm against brown planthopper ([3]; 0.08 ppm): E (50-59) | % Control at ppm against brown planthopper ([3]; 0.31 ppm): A (90-100) | % Control at ppm against brown planthopper ([3]; 2.5 ppm): A (90-100) | % Control at ppm against brown planthopper ([3]; 10 ppm): A (90-100) | % Control, root uptake systemic, green peach aphid on pepper ([4]; 0.08 ug/plant): 61% | % Control, root uptake systemic, green peach aphid on pepper ([4]; 0.4 ug/plant): 95% | % Control, root uptake systemic, green peach aphid on pepper ([4]; 2 ug/plant): 100% | % Control, root uptake systemic, green peach aphid on pepper ([4]; 10 ug/plant): 100% | % Control at ppm, foliar spray, sweet potato whitefly on cotton ([5]; 0.781 ppm): 80% | % Control at ppm, foliar spray, sweet potato whitefly on cotton ([5]; 3.125 ppm): 94% | % Control at ppm, foliar spray, sweet potato whitefly on cotton ([5]; 12.500 ppm): 100%
